Among the test systems are SK-MEL-2 melanoma; HCT-15 colon; 786-0 renal; OVCAR-3 ovarian; SR leukemia; M14 melanoma; NCI-H23 lung; NCI-H522 lung; NCI-H460 lung; MDA-MB-231 breast.
Common to all, as to assay: NCI anticancer screen, dose series, 48 h

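Where inhibition never reached the appropriate level, the endpoint shown equals the highest concentration tested. Otherwise, values were interpolated linearly from a five-concentration, 48-hour dose response in 96-well plates. At the GI50, growth is halved. At the TGI there is no net growth.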

On to `COC(=O)C1(O)CC(=O)CCC1c1ccc(OC)cc1` (centres undefined), for which the TGI in the assay on SK-MEL-2 melanoma, in the assay on HCT-15 colon, in the assay with 786-0 renal, with OVCAR-3 ovarian, in the assay with SR leukemia and with M14 melanoma was above 100 µM throughout. The TGI in the assay with NCI-H23 lung, with NCI-H522 lung and with NCI-H460 lung was above 100 µM each time.
Consider `CCCCn1c(-c2ccc(C(=O)O/N=C(\N)c3ccc4c(c3)OCO4)cc2)nc(-c2ccccc2)c1-c1ccccc1`, for which the GI50 is 4.19 µM with SK-MEL-2 melanoma; 2.63 µM with HCT-15 colon; 2.5 µM with 786-0 renal; 2.85 µM with M14 melanoma; 2.99 µM with MDA-MB-231 breast; 2.23 µM in the assay on NCI-H23 lung. Moreover, the GI50 in the assay on NCI-H522 lung was 2.04 µM; with NCI-H460 lung, 2.29 µM. The TGI in the assay with SK-MEL-2 melanoma was above 100 µM; in the assay on HCT-15 colon, above 100 µM; with 786-0 renal, 6.15 µM; in the assay with M14 melanoma it was 17.5 µM; in the assay on MDA-MB-231 breast, above 100 µM; in the assay with NCI-H23 lung it was above 100 µM. The TGI in the assay with NCI-H522 lung was 4.89 µM; with NCI-H460 lung, 5.62 µM.
In the case of `CCNC(=O)COc1ccc(Cl)cc1Cl`, the TGI with SK-MEL-2 melanoma, in the assay with HCT-15 colon, with 786-0 renal, in the assay with OVCAR-3 ovarian, in the assay with SR leukemia and in the assay with M14 melanoma was above 100 µM throughout. The TGI with NCI-H23 lung, with NCI-H522 lung and in the assay with NCI-H460 lung was above 100 µM throughout.
`COc1cnc2c(c1)C(=O)c1c-2n(CCCN2CCN(C)CC2)c(=O)c2cc([N+](=O)[O-])ccc12`: the GI50 is 11 µM in the assay on SK-MEL-2 melanoma; 0.249 µM in the assay on HCT-15 colon; 1.64 µM in the assay on 786-0 renal; 0.171 µM in the assay with OVCAR-3 ovarian; 0.0249 µM in the assay with SR leukemia; 0.131 µM with M14 melanoma. Besides, the GI50 in the assay on NCI-H23 lung is 0.362 µM; in the assay with NCI-H522 lung, 0.479 µM; in the assay with NCI-H460 lung, 0.135 µM. Further, the TGI in the assay with SK-MEL-2 melanoma is 23.2 µM; in the assay with HCT-15 colon, 1.26 µM; in the assay with 786-0 renal it was 3.13 µM; in the assay with OVCAR-3 ovarian, 0.359 µM; in the assay on SR leukemia it was 0.365 µM; with M14 melanoma, 0.37 µM. For the same compound, the TGI stood at 2.6 µM with NCI-H23 lung, 2.39 µM in the assay on NCI-H522 lung and 0.365 µM with NCI-H460 lung.
In the case of `C[C@H]1CCCC(O)C(O)[C@@H]2C[C@H](O[Si](C)(C)C(C)(C)C)C[C@H]2[C@H](O[Si](C)(C)C(C)(C)C)C(O)C(O)C(=O)O1` (some centres undefined), the GI50 in the assay with SK-MEL-2 melanoma is 34.8 µM; in the assay on 786-0 renal it was 10.6 µM; with OVCAR-3 ovarian, 25 µM; with M14 melanoma, 39.1 µM; in the assay on MDA-MB-231 breast, 14.2 µM; in the assay on NCI-H460 lung it was 11 µM. Also, the TGI was above 100 µM with SK-MEL-2 melanoma; 22.3 µM with 786-0 renal; 79.7 µM in the assay on OVCAR-3 ovarian; above 100 µM in the assay with M14 melanoma; 38.5 µM in the assay on MDA-MB-231 breast; 23.9 µM in the assay with NCI-H460 lung.
For the compound `CC(=O)c1ccc(O)c(CN(C2CCCCC2)C2CCCCC2)c1O`, the TGI with SK-MEL-2 melanoma, with HCT-15 colon, in the assay with 786-0 renal, in the assay with OVCAR-3 ovarian, in the assay with M14 melanoma and in the assay with MDA-MB-231 breast was above 100 µM throughout. Further, the TGI with NCI-H23 lung, with NCI-H522 lung and in the assay on NCI-H460 lung was above 100 µM each time.
Turning to `COc1ccc(/C(=N\NC(=S)NN)C(c2ccc(OC)cc2)C2C(=O)Oc3ccccc32)cc1` (centres undefined), the GI50 in the assay on SK-MEL-2 melanoma, in the assay with HCT-15 colon, in the assay on 786-0 renal, in the assay on OVCAR-3 ovarian, in the assay on M14 melanoma and in the assay on NCI-H23 lung was above 100 µM throughout. In the assay with NCI-H460 lung, the GI50 was above 100 µM. Moreover, the TGI in the assay on SK-MEL-2 melanoma, in the assay on HCT-15 colon, in the assay with 786-0 renal, with OVCAR-3 ovarian, in the assay on SR leukemia and with M14 melanoma was above 100 µM throughout. Besides, the TGI with NCI-H23 lung, with NCI-H522 lung and with NCI-H460 lung was above 100 µM in each case.
For the compound `COc1ccc2[nH]c3c(c2c1)[C@H](C)C[C@@H]1C(=O)N(c2ccccc2)C(=O)[C@H]31`, the TGI was above 100 µM in the assay with SK-MEL-2 melanoma; above 100 µM in the assay on HCT-15 colon; 48.5 µM with 786-0 renal; 56.1 µM in the assay on OVCAR-3 ovarian; 70.1 µM in the assay with SR leukemia; above 100 µM in the assay on M14 melanoma. In addition, the TGI was 66.8 µM in the assay on NCI-H23 lung, 42.1 µM in the assay on NCI-H522 lung and above 100 µM in the assay with NCI-H460 lung.
Turning to `COc1cc(NCCCCCCCNC(C)C)c2nccc(C)c2c1`, the GI50 in the assay on SK-MEL-2 melanoma was 20 µM; in the assay with HCT-15 colon, 12.2 µM; with 786-0 renal it was 14.8 µM; in the assay on OVCAR-3 ovarian, 2.96 µM; with M14 melanoma, 7.38 µM; with MDA-MB-231 breast, 9.45 µM. Further, the GI50 in the assay on NCI-H23 lung is 12.1 µM; in the assay with NCI-H522 lung it was 16 µM; in the assay with NCI-H460 lung it was 12.2 µM. The TGI in the assay on SK-MEL-2 melanoma turned out to be 38.3 µM; with HCT-15 colon, 27.3 µM; with 786-0 renal, 28.6 µM; in the assay with OVCAR-3 ovarian, 8.89 µM; in the assay on M14 melanoma, 20.7 µM; in the assay with MDA-MB-231 breast, 22.4 µM. Besides, the TGI with NCI-H23 lung is 26.2 µM; in the assay on NCI-H522 lung, 35 µM; with NCI-H460 lung, 27.5 µM.
`C[N+](C)(C)CC1CCCCC1O` (centres undefined): the TGI with SK-MEL-2 melanoma, in the assay with HCT-15 colon, in the assay on 786-0 renal, in the assay with OVCAR-3 ovarian, in the assay with SR leukemia and in the assay with M14 melanoma was above 100 µM each time. Besides, the TGI in the assay with NCI-H23 lung, with NCI-H522 lung and in the assay with NCI-H460 lung was above 100 µM throughout.
With `C=CC(OCC)(OCC)OCC`, the TGI in the assay on SK-MEL-2 melanoma is above 100 µM; in the assay on HCT-15 colon it was above 100 µM; in the assay with 786-0 renal, 58.7 µM; in the assay with OVCAR-3 ovarian it was above 100 µM; in the assay with SR leukemia, 65.4 µM; in the assay on M14 melanoma, above 100 µM. The TGI in the assay with NCI-H23 lung, with NCI-H522 lung and in the assay on NCI-H460 lung was above 100 µM throughout.
